Measurements: paper PMC12195250, “Synthesis, Biological Evaluation, Molecular Dynamics, and QM-MM Calculation of Spiro-Acridine Derivatives Against Leishmaniasis” (Microorganisms, 2025)
Values after ≈ are worked out from the molar mass of the structure shown. Like-named read-outs stand apart in the source and are kept apart here.

How the values were obtained:
[1] = system: L. amazonensis promastigotes (Strain MHOM/BR/PH8); test: Anti-promastigote effect, Neubauer chamber counting; assay type: cell-based, Leishmania amazonensis; details: 72 h incubation, read-out: L. amazonensis IC50PRO
Description: (§1) The promastigote cultures of L. infantum (Strain MHOM/BR/70/BH46) and L. amazonensis (Strain MHOM/BR/PH8) were kept in Schneider medium (Sigma-Aldrich, St. Louis, MO, USA) supplemented with 20% fetal bovine serum (FBS) and 1% streptomycin/penicillin in a B.O.D. incubator (J. Prolab, model JP. 100 LBCM/CPAM) at 26 °C. The promastigote strains were used in the exponential growth phase in all stages for experimental purposes.
(§2) The Neubauer chamber method was used to assess the inhibitory concentrations of the synthesized spiro-acridines capable of eliminating 50% of the promastigotes in cultures of L. amazonensis and L. infantum (IC50) strains. Promastigotes from both species were collected, counted, and diluted in Schneider’s medium (Sigma-Aldrich, St. Louis, MO, USA) supplemented with 20% fetal bovine serum (FBS) at a final concentration of 1 × 10^6 cells/mL. The evaluated promastigotes were then exposed to different concentrations of the tested compounds (10, 5, 2.5, 1.25, and 0.625 μg/mL). The positive control used the commercial drug Amphotericin B®, while the negative control consisted of promastigotes incubated in Schneider’s medium alone. After 72 h of incubation at 25 °C, culture growth was observed by counting the viable cells using a Neubauer chamber and calculated using the following Equation (1): No. Leishmania/mL = No. of cells counted × No. of Neubauer chamber(1) quadrants × the dilution used × 10^4 (Neubauer chamber correction factor)
(§3) The concentration parameter that inhibits 50% of parasite growth (IC50) was used to estimate the growth inhibition of the promastigote species of Leishmania sp. Thus, IC50 was determined by linear regression analysis with SPSS 8.0 software for Windows. Each test was performed in two independent experiments, with different cultures and in technical triplicate.

[2] = system: human red blood peripheral cells (O+); test: Hemocompatibility (hemolysis) in red blood cells; assay type: cell-based; details: 1 h at 37 °C
Description: The hemocompatibility of the spiro-acridine derivatives was determined using human red blood peripheral cells (O+) from healthy adults. The erythrocytes were diluted in phosphate-buffered saline (PBS) to a concentration of 5% in an 80 µL suspension and subsequently incubated with 20 µL of different concentrations of spiro-acridine derivatives and Amphotericin B® (400, 200, 100, 50, 25, 12,5, 6,25 and 3,12 μg/mL). Afterward, the samples were incubated for 1 h at 37 °C in a B.O.D incubator, and the reaction was stopped by adding 200 μL of PBS (1.5 mM KH2PO4, 8.1 mM Na2HPO4, 136.9 mM NaCl, and 2.6 mM KCl, pH 7.2). The samples were centrifuged at 2000 rpm for 10 min, at room temperature. The supernatants were collected and subjected to spectrophotometry using a spectrophotometer (model Biosystems ELx800, Curitiba, PR, Brazil) at 540 nm. The hemolysis percentage was determined as [(Abssam − Abscon)/(Abstot − Abscon) × 100], where Abssam refers to the absorbance of the sample, Abscon to the absorbance of the blank control (without compounds), and Abstot to the absorbance of total hemolysis (obtained by replacing the sample solution with an equal volume of Milli-Q water). The results were expressed as average hemolytic concentration (HC50), considering the positive control as 100% hemolysis.

[3] = system: L. infantum promastigotes (Strain MHOM/BR/70/BH46); test: Anti-promastigote effect, Neubauer chamber counting; assay type: cell-based, Leishmania infantum; details: 72 h incubation, read-out: L. infantum IC50PRO
Description: as §1, §2, §3

[4] = system: L. amazonensis promastigotes; parameters: method as in PMID 33765552; details: cited from earlier work
[5] = Cytotoxic effect in J774 macrophage cultures, MTT; assay type: cell-based; details: mouse, J774A.1 macrophages, read-out: CC50 (50% cytotoxic concentration in J774 macrophage)
Description: J774A.1 macrophages (ATCC TIB-67) were kept cryopreserved in a Falcon tube containing 5 mL of DMEM (Dulbecco’s modified Eagle medium) culture medium (Gibco®), supplemented with 10% inactivated fetal bovine serum, 1% non-essential amino acids, and 1% gentamicin sulfate. The tube was centrifuged at 200 rpm for 10 min. Afterward, the supernatant was discarded, and the cells were resuspended in the culture medium and transferred to a culture bottle kept in an incubator at 37 °C with 5% CO2. The assays were carried out in triplicate using a 96-well plate to evaluate the cytotoxic effect of the selected spiro-acridine compounds on J774 macrophage cultures. The compounds were diluted and seeded at predetermined concentrations (32, 16, 8, 4, and 2 μg/mL), parallel to the distribution of 1.0 × 10^5 J774 macrophages per well. The plate was incubated for two hours in a 5% CO2 incubator at 37 °C. Only the cells were incubated in the negative control without the tested molecules. In contrast, the positive control was performed by incubating the macrophages with the commercial drug Amphotericin B®. Later, 10 μL of the MTT reagent was added per well, and the cultures were re-incubated for 4 h. Finally, 50 μL of DMSO was added to each well, and the absorbance was read on a SpectraMAX GeminiXS plate spectrophotometer (Molecular Devices LLC, San Jose, CA, USA) at a wavelength of 570 nm. […]

[6] = system: L. amazonensis axenic amastigotes; test: Anti-amastigote effect on axenic amastigotes, MTT; assay type: cell-based, Leishmania amazonensis
Description: The amastigote forms of L. amazonensis were maintained under cryopreservation until they were transferred to an NNN medium (Novy–MacNeal–Nicolle) and incubated at 26 °C until the parasites reached the log growth phase. Subsequently, the suspension was transferred to Schneider culture medium (Sigma-Aldrich, St. Louis, MO, USA), supplemented with 20% inactivated fetal bovine serum and 0.2% gentamicin sulfate at 26 °C, causing the parasites to return to the log growth phase. The cultures were then maintained at 37 °C, producing a growth curve and the formation of the axenic amastigote strains.
The concentrations of the compounds AMTAC-02 and ACMD-03 capable of eliminating 50% of the cells in the cultures of L. amazonensis amastigotes (IC50) were determined using the MTT [3-(4,5-dimethylthiazol-2-yl)-2,5-diphenyltetrazolium bromide] (Sigma-Aldrich) reagent. In a 96-well plate, the assay was initiated by diluting both compounds to concentrations of 2, 4, 8, 16, and 32 μg/mL and 2.0 × 10^5 axenic amastigotes per well. The plates were incubated at 37 °C for 24 h. Then, 10 μL of MTT was added per well, and the cultures were re-incubated for 4 h. Subsequently, 50 μL of dimethyl sulfoxide was added to each well to solubilize the formazan crystals formed. The absorbances were measured using a SpectraMAX GeminiXS plate spectrophotometer (Molecular Devices LLC) at a wavelength of 570 nm. The negative control consisted of untreated cells, while the positive control was assessed by incubating the axenic amastigotes with the reference drug Amphotericin B® [13].

[7] = system: L. infantum promastigote forms; parameters: method as in PMID 34311084; details: cited from earlier work
[8] = system: L. brasiliensis promastigotes; parameters: method as in PMID 33168414; details: cited from earlier work
[9] = system: L. brasiliensis axenic amastigotes; parameters: method as in PMID 33168414; details: cited from earlier work

For `N#CC1=CC2(c3ccccc3Nc3ccccc32)N(/N=C/c2ccc(Cl)cc2)C1=O` [AMTAC-06, (E)1-(4-chlorobenzylideneamino)-5-oxo-1,5-dihydro-10H-spiro[acridine-9,2-pyrrole]-4-carbonitrile], the IC50 [1] was 750 nM, the “HC50 (concentration capable of promoting 50% hemolysis)” value [2] was >400 µM and the IC50 [3] was 13.8 µM.
In the case of `CC1=CC(=O)[C@H]2C(C)(C)CCC[C@]2(C)[C@@]1(O)CCc1ccoc1` [SOL, solidagenone], the IC50 [4] is given as 34.5 µM.
With `COc1ccc(N2C(=O)C(C#N)=CC23c2ccccc2Nc2ccccc23)cc1` [ACMD-06, (E)1′-(4-methoxyphenyl)-5′-oxo-1′, 5′-dihydro-10H-spiro{acridine-9,2′-pyrrole]-4′-carbonitrile] the IC50 [1] was 235000 nM, the “HC50 (concentration capable of promoting 50% hemolysis)” value [2] was >400 µM and the IC50 [3] was 3.5 µM.
With `C[C@@H]1[C@H](O)[C@@H](C)/C=C/C=C/C=C/C=C/C=C/C=C/C=C/[C@H](O[C@@H]2O[C@H](C)[C@@H](O)[C@H](N)[C@@H]2O)C[C@@H]2O[C@](O)(C[C@@H](O)C[C@@H](O)[C@H](O)CC[C@@H](O)C[C@@H](O)CC(=O)O[C@H]1C)C[C@H](O)[C@H]2C(=O)O` [ANFO B, Amphotericin B, reference compound] the CC50 at 2 h [5] was 3.09 µM, the IC50 ([1]; Leishmania amazonensis) was 1530 nM and the “HC50 (concentration capable of promoting 50% hemolysis)” value [2] was 24.25 µM. The “SI (selectivity index)” value ([6]; J774 macrophage CC50 versus L. amazonensis axenic amastigote IC50AMA) was 2.8, the IC50 ([6]; Leishmania amazonensis, 24 h, L. amazonensis axenic amastigotes, MTT) was 1080 nM and the IC50 ([3]; Leishmania infantum) was 0.05 µM.
In the case of `N#CC1=CC2(c3ccccc3Nc3ccccc32)N(c2ccccc2)C1=O` [ACMD-01, (E)5′-oxo-1′-phenyl-1′, 5′-dihydro-10H-spiro{acridine-9,2′-pyrrole]-4′-carbonitrile], the “HC50 (concentration capable of promoting 50% hemolysis)” value [2] is reported as >400 µM and the IC50 ([3]; Leishmania infantum) is reported as 3.9 µM.
In the case of `N#CC1=CC2(c3ccccc3Nc3ccccc32)N(/N=C/c2ccccc2)C1=O` [AMTAC-01, (E)-1′-(benzylideneamino)-5′-oxo-1′,5′-dihydro-10H-spiro[acridine-9,2′-pyrrole]-4′-carbonitrile], the IC50 ([1]; Leishmania amazonensis) is reported as 1230 nM, the “HC50 (concentration capable of promoting 50% hemolysis)” value [2] is reported as >400 µM and the IC50 ([3]; Leishmania infantum) is reported as 6.27 µM. The “IC50 against the promastigote forms” value [7] was 2.039 µg/mL (≈ 5.42 µM).
In the case of cordiaquinone E [CORe], the IC50 [8] is listed as 4.5 ± 0.3 µM and the IC50 [9] is listed as 2890 ± 110 nM.
